The text below walks through data of patent US20020123485A1, “Epoxy steroidal aldosterone antagonist and beta-adrenergic antagonist combination therapy for treatment of congestive heart failure” (priority 2000, published 2002).

Data set [1] concerns rats with ligated left anterior descending coronary artery. Nature of the data set: Assay D: myocardial infarction rat model. The class given is in vivo. The following applies: combination of beta-adrenergic antagonist and eplerenone versus either component alone; six weeks. An excerpt: Male rats are anesthetized and the heart is exteriorized following a left sided thoracotomy. The left anterior descending coronary artery is ligated with a suture. The thorax is closed and the animal recovers. Sham animals have the suture e passed through without ligation. One week prior to the surgery, animals to undergo infarction are divided into separate groups and drug treatment is begun. […] After six weeks, systolic and diastolic blood pressure, left ventricular end diastolic pressure, left ventricular dP/dt, and heart rate are evaluated. The hearts are removed, weighed, measured and fixed in formalin. Collagen content of heart sections are evaluated using computerized image analysis of picrosirius stained sections.

Data set [2] concerns rats made hypertensive by renal artery clip. In words: Assay C: hypertensive rat model. It counts as in vivo. Conditions: combination of beta-adrenergic antagonist and eplerenone versus either component alone; 12 and 24 weeks. An excerpt: Male rats are made hypertensive by placing a silver clip with an aperture of 240 microns on the left renal artery, leaving the contralateral kidney untouched. Sham controls undergo the same procedure but without attachment of the clip. One week prior to the surgery, animals to be made hypertensive are divided into separate groups and drug treatment is begun. […] After 12 and 24 weeks, systolic and diastolic blood pressure, left ventricular end diastolic pressure, left ventricular dP/dt, and heart rate are evaluated. The hearts are removed, weighed, measured and fixed in formalin. Collagen content of heart sections are evaluated using computeried image analysis of picrosirius stained sections.

Data set [3] concerns patients with mild to moderate hypertension. Nature of the data set: Example 19 clinical study: eplerenone versus placebo co-administered with a calcium-channel blocker. The class given is in vivo, human.
Text: This multicenter, randomized, double-blind, placebo-controlled, placebo run-in, parallel group trial involving a minimum of 120 randomized patients with hypertension (seated diastolic blood pressure [seDBP] ≧95 mmHg and <110 mmHg and seated systolic BP [seSBP] <180 mmHg while taking a CCB) will consist of a one- to two-week pretreatment screening period followed by a two- to four-week single-blind placebo run-in period and an 8-week double-blind treatment period. Eligible patients will be patients currently receiving a CCB as part of their antihypertensive medication. […] The dose will not be changed for patients with adequate BP control. […] If the dose has been increased at Week 2, the patient will be reassessed at Week 6. […] If BP is uncontrolled at Week 6 and the dose has been increased at Week 2 or Week 4, the patient must be withdrawn from the study. If symptomatic hypotension (i.e., lightheadedness, dizziness, or syncope associated with low BP) occurs at any time during the study, or if DBP is ≧110 mmHg or SBP is ≧180 mmHg at any time during the trial, the patient must be withdrawn. Patients will receive study medication for a total of 8 weeks.
The study will consist of a one- to two-week pretreatment screening period followed by a two- to four-week single-blind placebo run-in treatment period, prior to randomization to an eight-week double-blind treatment period.
Eligible patients will be either currently receiving a CCB alone, or receiving a CCB as part of their antihypertensive medication. […] The dose will not be changed for patients with adequate BP control. […] If the dose has been increased at Week 2, the patient will be reassessed at Week 6. The dose of study medication will not be changed for patients with adequate BP control. […] If BP is uncontrolled at Week 6 and the dose has been increased at Week 2 or Week 4, the patient must be withdrawn from the study. The dose of study medication will not be changed for patients with adequate BP control. If symptomatic hypotension (i.e., lightheadedness, dizziness, or syncope associated with low BP) occurs at any time during the study, or if DBP is ≧110 mmHg or SBP is ≧180 mmHg at any time during the study, the patient must be withdrawn. Patients will receive study medication for a total of eight weeks.
Patients will return to the clinic for evaluations at Weeks 0, 2, 4, 6, 8, and 9. Heart rate, BP, adverse events and concomitant medication will be assessed at each visit. Hematology and biochemistry evaluations and urinalysis for safety will be at Weeks 0, 8, and 9. Serum potassium levels will be determined at Weeks 0, 2, 4, 6, 8, and 9. Plasma renin, serum aldosterone, and plasma cortisol will be determined at Weeks 0 and 8. A 12-lead electrocardiogram and physical examination will be done at screening and at Week 9.
All randomized patients with at least one post-baseline assessment will be included in the efficacy analysis (intent-to-treat population). In each analysis, missing values will be imputed using the last observation carried forward (LOCF) method. The analysis of safety will focus on all randomized patients who took at least one dose of study medication (safety population).
BP evaluations will be analyzed at each visit using two-way analysis of covariance (ANCOVA) with the baseline measurement as the covariate and treatment and center as factors. The response variable will be the change from baseline. […]
The next data set addresses T1, progesterone receptor (Homo sapiens, UniProt P06401).
T1 sequence (P06401 1-933): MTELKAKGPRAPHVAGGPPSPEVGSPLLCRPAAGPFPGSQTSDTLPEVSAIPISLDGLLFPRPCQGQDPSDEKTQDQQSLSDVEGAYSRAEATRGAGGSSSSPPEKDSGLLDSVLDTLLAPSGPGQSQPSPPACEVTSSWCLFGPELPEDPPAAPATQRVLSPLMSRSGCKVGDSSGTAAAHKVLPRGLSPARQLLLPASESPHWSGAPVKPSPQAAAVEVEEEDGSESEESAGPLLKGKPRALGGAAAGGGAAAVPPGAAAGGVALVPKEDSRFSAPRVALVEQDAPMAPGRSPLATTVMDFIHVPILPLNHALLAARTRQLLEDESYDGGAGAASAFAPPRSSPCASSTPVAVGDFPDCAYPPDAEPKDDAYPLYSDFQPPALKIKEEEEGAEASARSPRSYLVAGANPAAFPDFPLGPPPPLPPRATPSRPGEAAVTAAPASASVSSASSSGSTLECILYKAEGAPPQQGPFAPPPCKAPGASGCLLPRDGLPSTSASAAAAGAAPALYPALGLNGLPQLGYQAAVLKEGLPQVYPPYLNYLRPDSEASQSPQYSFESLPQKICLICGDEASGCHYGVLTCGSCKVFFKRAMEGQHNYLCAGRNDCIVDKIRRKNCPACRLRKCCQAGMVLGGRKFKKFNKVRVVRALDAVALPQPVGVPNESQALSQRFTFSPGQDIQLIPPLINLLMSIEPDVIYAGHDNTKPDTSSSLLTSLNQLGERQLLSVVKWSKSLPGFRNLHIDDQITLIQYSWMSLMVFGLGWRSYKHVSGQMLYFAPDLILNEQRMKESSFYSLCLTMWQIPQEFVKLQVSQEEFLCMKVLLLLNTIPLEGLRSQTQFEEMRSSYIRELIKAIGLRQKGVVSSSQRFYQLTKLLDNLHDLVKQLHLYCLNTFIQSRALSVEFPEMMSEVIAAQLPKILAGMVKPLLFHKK
Nature of the data set: binding affinity for the progesterone receptor relative to spironolactone.

Data set [4] has as its system myocardial fibrosis in animal models. The following applies: cited from earlier work.
Setting [5] is: CCB and eplerenone compared to CCB and placebo.
Setting [6] is: eight weeks, eplerenone and CCB versus CCB and placebo.

As to `COC(=O)[C@@H]1CC2=CC(=O)CC[C@]2(C)[C@@]23O[C@@H]2C[C@@]2(C)[C@@H](CC[C@@]24CCC(=O)O4)[C@H]13` [eplerenone, Pregn-4-ene-7,21-dicarboxylic acid, 9,11-epoxy-17-hy-droxy-3-oxo-, γ-lactone, methyl ester, (7α, 11α, 17β)-], the cardiac performance entry in data set [1] is given as “improvements in cardiac performance”. Moreover, the cardiac performance result in data set [2] is recorded as “improvments in cardiac performance”. In data set [3] (setting [5]), the active renin levels entry is “greater increase” and the aldosterone levels result is listed as “greater increase”. In data set [3] (setting [6]), the “change in mean diastolic blood pressure” value is on record as “greater for the dual therapy group, compared to monotherapy, but this difference did not reach statistical significance” and the systolic blood pressure result is “significant reduction”. Moreover, in data set [3] (eplerenone added to CCB therapy), the serious adverse events entry is listed as “no serious adverse events reported”. The “binding affinity for the progesterone receptor, % that of spironolactone” value at progesterone receptor is given as “less than 1%”.

On to `CC(=O)S[C@@H]1CC2=CC(=O)CC[C@]2(C)[C@H]2CC[C@@]3(C)[C@@H](CC[C@@]34CCC(=O)O4)[C@H]12` [spironolactone], for which the myocardial fibrosis result in data set [4] is on record as “prevents myocardial fibrosis”.
